# Data reported in ChEMBL document CHEMBL1687836, “Oral hexadecyloxypropyl-cidofovir therapy in pregnant guinea pigs improves outcome in the congenital model of cytomegalovirus infection” (Antimicrob Agents Chemother, 2011).
# Activity calls are given as the source filed them. The rule behind the calls is not given here.
# What was measured:
# [1] = system: Caviid betaherpesvirus 2; assay: Antiviral activity against Guinea pig cytomegalovirus strain 22122 infected guinea pig CCL158 cells assessed as plaque reduction measured after 10 days by plaque reduction assay; type: functional, organism-based; conditions: Caviid betaherpesvirus 2, CCL158, 240 h
# [2] = Cytotoxicity against guinea pig CCL158 cells after 10 days by crystal violet staining; type: cell-based, Cavia porcellus
# [3] = Selectivity index, ratio of CC50 for guinea pig CCL158 cells to IC50 for Guinea pig cytomegalovirus strain 22122; type: functional
# [4] = system: Caviid betaherpesvirus 2; assay: Antiviral activity against Guinea pig cytomegalovirus strain 22122 infected in second and third trimesters of pregnant Hartley guinea pig assessed as pregnancy outcome measured as live-born pups at 20 mg/kg, po once at 24 hrs post infection and once 7 days post infection; type: functional
# [5] = system: Caviid betaherpesvirus 2; assay: Antiviral activity against Guinea pig cytomegalovirus strain 22122 infected in second and third trimesters of pregnant Hartley guinea pig assessed as reduction in dam blood viral log10 genome copies/ug of DNA at 20 mg/kg, po once at 24 hrs post infection and once at 7 days post infection (reference value: 3.22 +/- 0.2 log10 genome copies/ug DNA); type: functional
# [6] = system: Caviid betaherpesvirus 2; assay: Antiviral activity against Guinea pig cytomegalovirus strain 22122 infected in second and third trimesters of pregnant Hartley guinea pig assessed as reduction in viral DNA level in dam spleen at 20 mg/kg, po once at 24 hrs post infection and once at 7 days post infection relative to dam control; type: functional
# [7] = system: Caviid betaherpesvirus 2; assay: Antiviral activity against Guinea pig cytomegalovirus strain 22122 infected in second and third trimesters of pregnant Hartley guinea pig assessed as reduction in viral DNA level in dam liver at 20 mg/kg, po once at 24 hrs post infection and once at 7 days post infection relative to dam control; type: functional
# [8] = system: Caviid betaherpesvirus 2; assay: Antiviral activity against Guinea pig cytomegalovirus strain 22122 infected in second and third trimesters of pregnant Hartley guinea pig assessed as reduction in viral DNA level in pup spleen at 20 mg/kg, po once at 24 hrs post infection and once at 7 days post infection relative to control pup; type: functional
# [9] = system: Caviid betaherpesvirus 2; assay: Antiviral activity against Guinea pig cytomegalovirus strain 22122 infected in second and third trimesters of pregnant Hartley guinea pig assessed as reduction in viral DNA level in pup liver at 20 mg/kg, po once at 24 hrs post infection and once at 7 days post infection relative to control pup; type: functional
# [10] = system: Caviid betaherpesvirus 2; assay: Antiviral activity against Guinea pig cytomegalovirus strain 22122 infected in second and third trimesters of pregnant Hartley guinea pig assessed as pup spleen containing detectable viral DNA at 20 mg/kg, po once at 24 hrs post infection and once at 7 days post infection (reference value: 44%); type: functional
# [11] = system: Caviid betaherpesvirus 2; assay: Antiviral activity against Guinea pig cytomegalovirus strain 22122 infected in second and third trimesters of pregnant Hartley guinea pig assessed as pup liver containing detectable viral DNA at 20 mg/kg, po once at 24 hrs post infection and once at 7 days post infection (reference value: 73%); type: functional
# [12] = system: Caviid betaherpesvirus 2; assay: Antiviral activity against Guinea pig cytomegalovirus strain 22122 infected in second and third trimesters of pregnant Hartley guinea pig assessed as increase in pup survival at 20 mg/kg, po once at 24 hrs post infection and once at 7 days post infection; type: functional, organism-based; set-up: dose 20 mg/kg; conditions: Guinea pig cytomegalovirus (strain 22122 / ATCC VR682) (GPCMV)
# [13] = system: Caviid betaherpesvirus 2; assay: Antiviral activity against Guinea pig cytomegalovirus strain 22122 infected in second and third trimesters of pregnant Hartley guinea pig assessed as reduction in pups with detectable viral DNA at 20 mg/kg, po once at 24 hrs post infection and once at 7 days post infection; type: functional, organism-based; set-up: dose 20 mg/kg; conditions: Guinea pig cytomegalovirus (strain 22122 / ATCC VR682) (GPCMV)
# [14] = system: Caviid betaherpesvirus 2; assay: Antiviral activity against Guinea pig cytomegalovirus strain 22122 infected in second and third trimesters of pregnant Hartley guinea pig assessed as pregnancy outcome measured as live-born pups at 4 mg/kg, po treatment started at 24 hrs post infection for 5 consecutive days (reference value: 62.5%); type: functional
# [15] = system: Cavia porcellus; assay: Toxicity in Guinea pig cytomegalovirus strain 22122 infected second and third trimesters of pregnant Hartley guinea pig assessed as decreased animal activity at 20 mg/kg, po once at 24 hrs post infection and once 7 days post infection; type: organism-based; set-up: dose 20 mg/kg, route oral; conditions: in vivo
# [16] = system: Cavia porcellus; assay: Toxicity in Guinea pig cytomegalovirus strain 22122 infected second and third trimesters of pregnant Hartley guinea pig assessed as animal weight loss at 20 mg/kg, po once at 24 hrs post infection and once 7 days post infection; type: organism-based; set-up: dose 20 mg/kg, route oral; conditions: in vivo
# [17] = system: Cavia porcellus; assay: Toxicity in Guinea pig cytomegalovirus strain 22122 infected second and third trimesters of pregnant Hartley guinea pig assessed as decreased animal activity at 4 mg/kg, po treatment started at 24 hrs post infection for 5 consecutive days; type: organism-based; set-up: dose 4 mg/kg, route oral; conditions: in vivo
# [18] = system: Cavia porcellus; assay: Toxicity in Guinea pig cytomegalovirus strain 22122 infected second and third trimesters of pregnant Hartley guinea pig assessed as animal weight loss at 4 mg/kg, po treatment started at 24 hrs post infection for 5 consecutive days; type: organism-based; set-up: dose 4 mg/kg, route oral; conditions: in vivo
# [19] = system: Cavia porcellus; assay: Toxicity in Guinea pig cytomegalovirus strain 22122 infected second and third trimesters of pregnant Hartley guinea pig assessed as low birth weight pups at 20 mg/kg, po once at 24 hrs post infection and once 7 days post infection (reference value: 107 +/- 10 g); type: organism-based; set-up: dose 20 mg/kg, route oral; conditions: in vivo
# [20] = system: Cavia porcellus; assay: Toxicity in Guinea pig cytomegalovirus strain 22122 infected second and third trimesters of pregnant Hartley guinea pig assessed as low birth weight pups at 4 mg/kg, po treatment started at 24 hrs post infection for 5 consecutive days (reference value: 107 +/- 10 g); type: organism-based; set-up: dose 4 mg/kg, route oral; conditions: in vivo
# [21] = system: Cavia porcellus; assay: Toxicity in Guinea pig cytomegalovirus strain 22122 infected second and third trimesters of pregnant Hartley guinea pig assessed as adverse effect on complete blood count at 4 mg/kg, po treatment started at 24 hrs post infection for 9 consecutive days; type: organism-based; set-up: dose 4 mg/kg, route oral; conditions: in vivo
# [22] = system: Cavia porcellus; assay: Toxicity in Guinea pig cytomegalovirus strain 22122 infected second and third trimesters of pregnant Hartley guinea pig assessed as adverse effect on complete blood count in new born pups at 4 mg/kg, po treatment started at 24 hrs post infection for 9 consecutive days; type: organism-based; set-up: dose 4 mg/kg, route oral; conditions: in vivo
# [23] = system: Cavia porcellus; assay: Toxicity in Guinea pig cytomegalovirus strain 22122 infected second and third trimesters of pregnant Hartley guinea pig assessed as dam liver toxicity at 4 mg/kg, po treatment started at 24 hrs post infection for 9 consecutive days; type: organism-based; set-up: dose 4 mg/kg, route oral; conditions: in vivo
# [24] = system: Cavia porcellus; assay: Toxicity in Guinea pig cytomegalovirus strain 22122 infected second and third trimesters of pregnant Hartley guinea pig assessed as dam kidney toxicity at 4 mg/kg, po treatment started at 24 hrs post infection for 9 consecutive days; type: organism-based; set-up: dose 4 mg/kg, route oral; conditions: in vivo
# [25] = system: Cavia porcellus; assay: Toxicity in Guinea pig cytomegalovirus strain 22122 infected second and third trimesters of pregnant Hartley guinea pig assessed as pup liver toxicity at 4 mg/kg, po treatment started at 24 hrs post infection for 9 consecutive days; type: organism-based; set-up: dose 4 mg/kg, route oral; conditions: in vivo
# [26] = system: Cavia porcellus; assay: Toxicity in Guinea pig cytomegalovirus strain 22122 infected second and third trimesters of pregnant Hartley guinea pig assessed as pup kidney toxicity at 4 mg/kg, po treatment started at 24 hrs post infection for 9 consecutive days; type: organism-based; set-up: dose 4 mg/kg, route oral; conditions: in vivo
# [27] = system: Caviid betaherpesvirus 2; assay: Antiviral activity against Guinea pig cytomegalovirus strain 22122 infected in second and third trimesters of pregnant Hartley guinea pig assessed as reduction in dam viremia at 4 mg/kg, po qd for 5 days; type: functional, organism-based; set-up: dose 4 mg/kg; conditions: Guinea pig cytomegalovirus (strain 22122 / ATCC VR682) (GPCMV)
# [28] = system: Caviid betaherpesvirus 2; assay: Antiviral activity against Guinea pig cytomegalovirus strain 22122 infected in second and third trimesters of pregnant Hartley guinea pig assessed as dam liver with detectable viral DNA at 4 mg/kg, po qd for 5 days measured 10 days post infection by real-time PCR (reference value: 100%); type: functional
# [29] = system: Caviid betaherpesvirus 2; assay: Antiviral activity against Guinea pig cytomegalovirus strain 22122 infected in second and third trimesters of pregnant Hartley guinea pig assessed as dam liver with detectable viral DNA at 4 mg/kg, po qd for 9 days measured 10 days post infection by real-time PCR (reference value: 100%); type: functional
# [30] = system: Caviid betaherpesvirus 2; assay: Antiviral activity against Guinea pig cytomegalovirus strain 22122 infected in second and third trimesters of pregnant Hartley guinea pig assessed as fetus liver with detectable viral DNA at 4 mg/kg, po qd for 5 days measured 10 days post infection by real-time PCR (reference value: 87%); type: functional
# [31] = system: Caviid betaherpesvirus 2; assay: Antiviral activity against Guinea pig cytomegalovirus strain 22122 infected in second and third trimesters of pregnant Hartley guinea pig assessed as fetus liver with detectable viral DNA at 4 mg/kg, po qd for 9 days measured 10 days post infection by real-time PCR (reference value: 87%); type: functional
# [32] = system: Caviid betaherpesvirus 2; assay: Antiviral activity against Guinea pig cytomegalovirus strain 22122 infected in second and third trimesters of pregnant Hartley guinea pig assessed as dam spleen with detectable viral DNA at 4 mg/kg, po qd for 5 days measured 10 days post infection by real-time PCR (reference value: 100%); type: functional
# [33] = system: Caviid betaherpesvirus 2; assay: Antiviral activity against Guinea pig cytomegalovirus strain 22122 infected in second and third trimesters of pregnant Hartley guinea pig assessed as dam spleen with detectable viral DNA at 4 mg/kg, po qd for 9 days measured 10 days post infection by real-time PCR (reference value: 100%); type: functional
# [34] = system: Caviid betaherpesvirus 2; assay: Antiviral activity against Guinea pig cytomegalovirus strain 22122 infected in second and third trimesters of pregnant Hartley guinea pig assessed as fetus spleen with detectable viral DNA at 4 mg/kg, po qd for 5 days measured 10 days post infection by real-time PCR (reference value: 47%); type: functional
# [35] = system: Caviid betaherpesvirus 2; assay: Antiviral activity against Guinea pig cytomegalovirus strain 22122 infected in second and third trimesters of pregnant Hartley guinea pig assessed as fetus spleen with detectable viral DNA at 4 mg/kg, po qd for 9 days measured 10 days post infection by real-time PCR (reference value: 47%); type: functional
# [36] = system: Caviid betaherpesvirus 2; assay: Antiviral activity against Guinea pig cytomegalovirus strain 22122 infected in second and third trimesters of pregnant Hartley guinea pig assessed as dam placenta with detectable viral DNA at 4 mg/kg, po qd for 5 days measured 10 days post infection by real-time PCR (reference value: 100%); type: functional
# [37] = system: Caviid betaherpesvirus 2; assay: Antiviral activity against Guinea pig cytomegalovirus strain 22122 infected in second and third trimesters of pregnant Hartley guinea pig assessed as dam placenta with detectable viral DNA at 4 mg/kg, po qd for 9 days measured 10 days post infection by real-time PCR (reference value: 100%); type: functional
# [38] = system: Caviid betaherpesvirus 2; assay: (§1) Antiviral activity against Guinea pig cytomegalovirus strain 22122 infected in second and third trimesters of pregnant Hartley guinea pig assessed as dam liver viral log10 genome copies/ug of DNA at 4 mg/kg, po qd for 5 days measured 10 days post infection by real-time PCR (reference value: 4.82 +/- 0.8 log10 genome copies/ug of DNA); type: functional
# [39] = system: Caviid betaherpesvirus 2; assay: as §1, with “9” for “5”; type: functional
# [40] = system: Caviid betaherpesvirus 2; assay: as §1, with “fetus” for “dam”, “2.20” for “4.82”, “0.6” for “0.8”; type: functional
# [41] = system: Caviid betaherpesvirus 2; assay: as §1, with “fetus” for “dam”, “9” for “5”, “2.20” for “4.82”, “0.6” for “0.8”; type: functional
# [42] = system: Caviid betaherpesvirus 2; assay: as §1, with “spleen” for “liver”, “4.12” for “4.82”, “0.3” for “0.8”; type: functional
# [43] = system: Caviid betaherpesvirus 2; assay: as §1, with “spleen” for “liver”, “9” for “5”, “4.12” for “4.82”, “0.3” for “0.8”; type: functional
# [44] = system: Caviid betaherpesvirus 2; assay: as §1, with “fetus spleen” for “dam liver”, “1.63” for “4.82”, “0.6” for “0.8”; type: functional
# [45] = system: Caviid betaherpesvirus 2; assay: as §1, with “fetus spleen” for “dam liver”, “9” for “5”, “1.63” for “4.82”, “0.6” for “0.8”; type: functional
compound,measurement,setting,value
CCCCCCCCCCCCCCCCOCCCOP(=O)(O)CO[C@H](CO)Cn1ccc(N)nc1=O [BRINCIDOFOVIR],EC50,[1],4 nM
same,CC50 at 240 h,[2],> 100000 nM
same,Selectivity Index,[3],>25000
same,Activity,[4],93.8%
same,Activity,[5],2.88
same,fold change (FC),[6],5
same,fold change (FC),[7],6.5
same,fold change (FC),[8],6
same,fold change (FC),[9],10.5
same,Activity,[10],25%
same,Activity,[11],57%
same,Activity,[12],Active
same,Activity,[13],Active
same,Activity,[14],100%
same,Activity,[15],Non-toxic
same,Activity,[16],Non-toxic
same,Activity,[17],Non-toxic
same,Activity,[18],Non-toxic
same,Activity,[19],103 g
same,Activity,[20],103 g
same,Activity,[21],Non-toxic
same,Activity,[22],Non-toxic
same,Activity,[23],Non-toxic
same,Activity,[24],Non-toxic
same,Activity,[25],Non-toxic
same,Activity,[26],Non-toxic
same,Activity,[27],Active
same,Activity,[28],100%
same,Activity,[29],100%
same,Activity,[30],92%
same,Activity,[31],85%
same,Activity,[32],100%
same,Activity,[33],100%
same,Activity,[34],77%
same,Activity,[35],62%
same,Activity,[36],100%
same,Activity,[37],100%
same,Activity,[38],2.98
same,Activity,[39],3.01
same,Activity,[40],2.12
same,Activity,[41],1.87
same,Activity,[42],2.77
same,Activity,[43],2.09
same,Activity,[44],1.91
same,Activity,[45],1.65
